Legend:
[1] = system: mouse embryonic fibroblasts (MEFs); assay: qRT-PCR of pancreatic lineage markers during three-stage direct reprogramming of MEFs; format: cell-based; details: stage-1 cells, single miRNA transfected, relative to the mimic (FIG. 2a)
Protocol: (§1) MEFs (5×10^4 cells/well per 12-well plate) were transfected using the jetMESSENGER (Polyplus-Transfection, Illkirch, France) reagent according to the manufacturer's instructions. The miRNA to be infected (200 nM) (QIAGEN, Hilden, Germany) was diluted in mRNA buffer and 2 μL of the jetMESSENGER reagent was added thereto. The mixture was incubated at room temperature for 20 minutes and then added to MEFs, and 24 hours thereafter, a stage-specific medium was added thereto.
For direct reprogramming of cells, knockout DMEM (KO-DMEM) (Gibco) was used as a basal medium. The knockout DMEM includes 15% knockout serum replacement (Gibco, Thermo Fisher Scientific, Inc., Waltham, MA, USA), 5% FBS (exosome depleted), 1% GlutaMax (Gibco, Thermo Fisher Scientific, Inc., Waltham, MA, USA), 1% Non-Essential Amino Acids (NEAA, Gibco, Thermo Fisher Scientific, Inc., Waltham, MA, USA), and 0.5 mM β-ME (Sigma Aldrich, Inc., Saint Louis, MO, USA).
The three-stage differentiation protocol of the present disclosure is as follows: Stage 1, differentiation from MEFs into pancreatic endoderm cells; Stage 2, differentiation of pancreatic endoderm cells into pancreatic progenitor-like cells; Stage 3, differentiation from pancreatic progenitor-like cells into beta-cell-like cells.
First, 5×10^4 MEF cells/well were seeded in a 12-well tissue culture plate of DMEM containing 10% FBS and 1×P/S for one day. The next day, a Stage 1 differentiation medium was added thereto. The Stage 1 differentiation medium contains 1 μM Bix-01294 (MedchemExpress, Monmouth Junction, NJ, USA), 280 μM 2-phospho-L-ascorbic acid (pVC) Sigma Aldrich, Inc., Saint Louis, MO, USA), and 50 ng/mL activin A (R&D Systems, Minneapolis, MI, USA). After addition of the medium, cells were maintained for 6 days. The medium used was replaced every 3 days. After 6 days, a Stage 2 differentiation medium was added for 4 days. […]
Statistical significance was determined by a two-way, paired student's t-test. […]

[2] = system: mouse embryonic fibroblasts (MEF); assay: Proliferation / morphology of MEFs by bright field microscopy in stage-1 differentiation; format: cell-based; details: after 48 hours (FIG. 3c)
Protocol: FIGS. 3a to 3c confirm the proliferative ability of mouse embryonic fibroblasts (MEF) following transfection with a miRNA mimic and combinations of miRNAs (miR-127, miR-709, and miR-19b) of the present disclosure.
as §1

| Substance | induction of Pdx1 expression [1] [fold] | cell proliferation [2] |
| --- | --- | --- |
| miR-709: microRNA, SEQ ID NO: 2, GGAGGCAGAGGCAGGAGGA (listed as RNA, chemistry not given here) | 3.2 |  |
| miR-127: microRNA, SEQ ID NO: 1, CUGAAGCUCAGAGGGCUCUGAU | 3.9 |  |
| miR-19b: microRNA, SEQ ID NO: 5, ugugcaaauccaugcaaaacuga (UGUGCAAAUCCAUGCAAAACUGA; listed as RNA, chemistry not given here) | 1.6 | highest cell proliferation |

From patent publication US20230364153A1, “METHOD FOR DIRECT REPROGRAMMING FROM SOMATIC CELLS INTO PANCREATIC BETA CELLS BY USING MICRORNA, AND DIFFERENTIATION COMPOSITION” (Research & Business Foundation Sungkyunkwan University, priority 2020, published 2023)
